Data set [1] concerns HEK 293 cells transfected with a luciferase construct. As to the kind of experiment: Whole cell translation inhibition assay. The format is cell-based, human. As to conditions: HEK 293 whole-cell assay; 24 h incubation; luminescence; n = 1. Here is the method: HEK293 cells were cultivated in DMEM medium supplemented with 10% fetal bovine serum and transfected with vector pRM-hFluc carrying a Fluc gene under constitutive CMV promotor control using Xfect™ Transfection Reagent (Takara, Japan) according to the manufacturer’s protocol. Transfected cells were seeded into a 24-well plate 6 h post-transfection and pre-incubated overnight prior to addition of peptides in the next morning. Following 24 h of incubation in the presence of the peptides, cells were lysed using Lysis Buffer (Promega) and the luminescence was measured in a white microtiter plate using the FLx800 luminometer (Bio-Tek Instruments, USA).

Data set [2] deals with HEK 293 cells. The format is cell-based, human. As to conditions: MTT, 24 h, 37°C, triplicates, read-out: Toxicity IC50. Here is the method:
(§1) HeLa epithelioid cervix carcinoma cells (originally purchased: 93021013, Sigma Aldrich) and HEK 293 human embryonic kidney (originally purchased: 85120602, Sigma Aldrich) were routinely cultivated in Dulbecco’s MEM high glucose (DMEM, with L-glutamine, without phenol red, 1-26P32, Bioconcept, Allschwil, CH), supplemented with 10% fetal bovine serum (heat inactivated, sterile filtered, F9665, Sigma Aldrich) and 100 IU ml^−1/100 μg ml^−1 Penicillin/streptomycin (4-01F00, Bioconcept) at 37°C with 5% CO2. Cells were split at a confluency of ≤ 90% (every 3 to 4 days) and maintained for max. 10 passages before a fresh aliquot of cells were seeded. […] The cell concentration was determined using a Countess 2 device (Thermo Fisher Scientific) and approx. 5000 (HeLa) or 25,000 (HEK 293) cells were seeded into wells of a 96-well plate (F-bottom, PS, 655180, Greiner) together with 100 μl DMEM. […] For each dilution series, the IC50 value was determined by computing a weighted n-parameters logistic regression using the “nplr” package in R (https://CRAN.R-project.org/package=nplr). […]

Data set [3] concerns E. coli TOP10. The experiment in a line: Membrane damage assay in MHB II (GFP loss, PI uptake). The format is cell-based. As to conditions: n = 3.
Data set [4] relates to HeLa cells. The experiment in a line: In vitro toxicity assay (MTT), HeLa. The format is cell-based, human. Here is the method: as §1
Data set [5] has as its system E. coli TOP10. As to the kind of experiment: Membrane damage assay in MHB I (GFP loss, PI uptake). Format: cell-based. The note with it: not cation-adjusted, n = 3. Here is the method: For membrane damage assays, the bacterial strain […] [pSEVA271-sfGFP] and the peptide dilutions were prepared as described for the MIC measurements but by scaling all volumes 5-fold and using 96-well plates (polypropylene, U-bottom, 650201, Greiner, Kremsmünster, AT) with a final assay volume of 200 μl. The bacterial strain suspension was furthermore supplemented with a final concentration of 1 μg ml^−1 propidium iodide (PI, from a 1 mg ml^−1 stock in water) just before pipetting the assay. After 1 h incubation at room temperature, the cell membrane integrity was assessed by flow cytometry using a Fortessa Analyzer (BD Biosciences) and appropriate filters for GFP and PI (488-nm laser with 530/30-nm bandpass filter and 579-nm laser with 610/20-nm bandpass filter). […]
Fig. S8 | Membrane damage assay. Membrane damage assays measuring PI uptake of the cells (% cells are given that gained PI fluorescence) and GFP loss (% of the cells are given that lost sfGFP fluorescence) when incubating E. coli TOP10 cells with various peptide concentrations in MHB I (n=3; error bars = 1SD).Fig. S7 | Interactions observed per amino acid residue. For each amino acid residue, the occurrences of interactions at all positions were counted. No antagonistic effect was detected for glutamate and valine residues. No interaction was detected for serine. […]

The mark [6] stands for this setting: approximately 16-fold above its MIC (~35 μM).
The mark [7] stands for this setting: at the MIC up to 8-fold higher concentrations.

Where no end group is shown, it is not given here.

One may read the IC50 as the concentration needed to halve the response being measured. Take RRIRIRPPRLPRPRPRPYFMPRP [Bac7PS]: in data set [1], the “concentration above which increased translational inhibition relative to Bac7_1-23 appeared” value was “above 200 μM”. Also, the IC50 in data set [2] stood at 755 µM. In addition, in data set [3] (setting [6]), the PI-positive cells is reported as ~ 3% and the “cells that lost GFP” value is recorded as 26%. For the same sequence, in data set [3] (setting [7]), the PI-positive cells is ~ 1% and the “cells that retained GFP levels” value is on record as ~ 99%. This sequence showed an IC50 in data set [4] (HeLa, MTT, 24 h, 37°C, triplicates) of 521 µM. Also, the “therapeutic index (TI), Toxicity/MIC” value in data set [4] (IC50 HeLa divided by MIC50 from clinical isolates) worked out at 180. Moreover, the “membrane damage, compared with MHB II” value in data set [5] was “more pronounced”.

Source of the values: PMC9112550, “Optimization of the antimicrobial peptide Bac7 by deep mutational scanning” (BMC Biology, 2022).
